# In patent US9447408B2, “Method of efficiently establishing induced pluripotent stem cells” (Kyoto University, priority 2010, dated 2016):
# Experiments:
# [1] = test system: Mouse embryonic fibroblasts (MEFs); assay: iPS cell establishment from Nanog-GFP reporter MEFs, 4 genes (Oct3/4, Sox2, Klf4, c-Myc) introduced, with p38 inhibitors; type: cell-based
# Protocol: Mouse embryonic fibroblasts (MEFs) from a Nanog reporter mouse carrying Nanog-GFP—IRES-Puro^r [Okita K. et al, Nature 448, 313-317 (2007)] were transfected with four genes using a retrovirus to induce iPS cells.
# Each retrovirus for reprogramming was prepared by transferring each of retroviral expression vectors (pMXs-Oct3/4, pMXs-Sox2, pMXs-Klf4, pMXs-cMyc:Cell, 126, 663-676 (2006)) to Plat-E cells (Morita, S. et al., Gene Ther. 7, 1063-1066) that had been seeded to a 6-well culture plate (Falcon) at 0.6×10^6 cells per well on the day before. The cells were cultured at 37° C. in the presence of 5% CO2 using DMEM/10% FCS [a culture broth prepared by adding 10% fetal calf serum to DMEM (Nacalai Tesque)]. To facilitate vector transfer, 4.5 μL of FuGene6 transfection reagent (Roche) was placed in 100 μL of Opti-MEM I Reduced-Serum Medium (Invitrogen), and the medium was allowed to stand at room temperature for 5 minutes. Subsequently, 1.5 μg of each expression vector was added, and the medium was allowed to further stand at room temperature for 15 minutes, after which they were added to the Plat-E culture broth. On day 2, the Plat-E supernatant was replaced with a fresh supply of the medium. On day 3, the culture supernatant was recovered and filtered through a 0.45 μm sterile filter (Whatman), and polybrene (Nacalai) was added at 4 μg/mL to yield a viral liquid.
# Mouse embryonic fibroblasts (MEFs) were isolated from a fetal Nanog reporter mouse (13.5 days after fertilization). […] Not expressing the puromycin resistance gene as well, MEFs are susceptible to the antibiotic puromycin. As such, MEFs were seeded to a 6-well culture plate (Falcon), previously coated with 0.1% gelatin (Sigma), at 1.0×10^5 cells per well. DMEM/10% FCS served as the culture broth at 37° C. in the presence of 5% CO2. The following day, each retrovirus liquid was added, and this was followed by overnight infection to introduce the genes.
# On day 1 after the viral infection, the medium for the MEFs was removed, and the cells were washed by the addition of 1 mL of PBS. After removing the PBS, 0.25% Trypsin/1 mM EDTA (Invitrogen) was added, and a reaction was carried out at 37° C. for about 5 minutes. After the cells floated up, the cells were suspended by the addition of an ES cell culture medium and 2500 cells were seeded to a 100 mm dish having mitomycin C-treated STO feeder cells seeded thereto previously. Cultivation was continued while replacing the ES cell culture medium with a fresh supply of the same medium every two days until a visible colony emerged.
# To determine the effects of p38 inhibitors on the establishment of iPS cells by the introduction of the four mouse genes, cultivation was continued with the addition of 10 μM of the p38 inhibitor 5B202190, SB239063, or SB203580 (Calbiochem Company) to the medium per the schedule shown below. All these inhibitors were used in solution in DMSO. • 1. Oct3/4, Sox2, Klf4, c-Myc, each derived from mouse, saline • 2. Oct3/4, Sox2, Klf4, c-Myc, each derived from mouse, DMSO • 3. Oct3/4, Sox2, Klf4, c-Myc, each derived from mouse, SB202190 10 μM Day 1-4) • 4. Oct3/4, Sox2, Klf4, c-Myc, each derived from mouse, SB202190 10 μM (Day 1-8) • 5. Oct3/4, Sox2, Klf4, c-Myc, each derived from mouse, SB202190 10 μM (Day 9-16) • 6. Oct3/4, Sox2, Klf4, c-Myc, each derived from mouse, SB202190 10 μM (Day 1-16) • 7. Oct3/4, Sox2, Klf4, c-Myc, each derived from mouse, SB239063 10 μM (Day 1-4) • 8. Oct3/4, Sox2, Klf4, c-Myc, each derived from mouse, SB239063 10 μM (Day 1-8) • 9. Oct3/4, Sox2, Klf4, c-Myc, each derived from mouse, SB239063 10 μM (Day 9-16) • 10. Oct3/4, Sox2, Klf4, c-Myc, each derived from mouse, SB239063 10 μM (Day 1-16) • 11. Oct3/4, Sox2, Klf4, c-Myc, each derived from mouse, SB203580 10 μM (Day 1-4) • 12. Oct3/4, Sox2, Klf4, c-Myc, each derived from mouse, SB203580 10 μM (Day 1-8) • 13. Oct3/4, Sox2, Klf4, c-Myc, each derived from mouse, SB203580 10 μM (Day 9-16) • 14. […]
# [2] = test system: Mouse embryonic fibroblasts (MEFs); assay: iPS cell establishment from MEFs, 3 genes (Oct3/4, Sox2, Klf4) introduced, with p38 inhibitors; type: cell-based; settings: 10 μM inhibitor added in the initial stage after the infection
# Protocol: Three genes were introduced using a retrovirus by the same experimental procedures as the above. The cells were cultured at a cell density of 2×10^4 cells/10 cm dish, with the addition of 10 μM of SB202190, SB239063, or SB203580 (Calbiochem Company) to the medium per the schedule shown below, and the establishment efficiency was compared. • 1. Oct3/4, Sox2, Klf4, each derived from mouse, saline • 2. Oct3/4, Sox2, Klf4, each derived from mouse, DMSO • 3. Oct3/4, Sox2, Klf4, each derived from mouse, SB202190 10 μM (Day 1-4) • 4. Oct3/4, Sox2, Klf4, each derived from mouse, SB202190 10 μM (Day 1-8) • 5. Oct3/4, Sox2, Klf4, each derived from mouse, SB202190 10 μM (Day 9-16) • 6. Oct3/4, Sox2, Klf4, each derived from mouse, SB202190 10 μM (Day 1-16) • 7. Oct3/4, Sox2, Klf4, each derived from mouse, SB239063 10 μM (Day 1-4) • 8. Oct3/4, Sox2, Klf4, each derived from mouse, SB239063 10 μM (Day 1-8) • 9. Oct3/4, Sox2, Klf4, each derived from mouse, SB239063 10 μM (Day 9-16) • 10. Oct3/4, Sox2, Klf4, each derived from mouse, SB239063 10 μM (Day 1-16) • 11. Oct3/4, Sox2, Klf4, each derived from mouse, SB203580 10 μM (Day 1-4) • 12. Oct3/4, Sox2, Klf4, each derived from mouse, SB203580 10 μM (Day 1-8) • 13. Oct3/4, Sox2, Klf4, each derived from mouse, SB203580 10 μM (Day 9-16) • 14. Oct3/4, Sox2, Klf4, each derived from mouse, SB203580 10 μM (Day 1-16),
smiles,measurement,setting,value
"C[S+]([O-])c1ccc(-c2nc(-c3ccc(F)cc3)c(-c3ccncc3)[nH]2)cc1 (stereo not drawn) [SB203580, 4-(4-fluorophenyl)-2-(4-methylsulfinylphenyl)-5-(4-pyridyl)-1H-imidazole]",effect on colony count when measured on day 28 after the infection,"[1]; 10 μM inhibitor on days 1 to 4, counted day 28",remarkable
same,colony count compared with cells treated with physiological saline or DMSO,"[1]; 10 μM inhibitor on days 1 to 4 after the infection, FIG. 1",tended to increase
same,number of positive cells compared with DMSO treatment,[2],increased
